# Test results from PMC12980303, “Development of a novel risk score reflecting the relative harm potential of synthetic cannabinoids based on prevalence estimates, well‐documented intoxication cases and basic pharmacological data” (Addiction (Abingdon, England), 2025).
# Test: risk score from prevalence in routine forensic samples and intoxication cases (G1, PSS, TSS)
# Set-up: species or system human
# Text: Therefore, higher values indicate substances with a higher risk. […] To take into account the severity of symptoms and the contribution of the specific NPS, two further summands were introduced. The first is based on the PSS, the second on the TSS. Again, higher values were associated with more severe symptoms and a stronger role of the NPS in causing the symptoms.
# The risk score is composed of three components (parts G1, G2 and G3) and was designed as follows: (1) Gx=G1x+G2x+G3x,
# Equation 2 takes into consideration several components: the number of intoxications with SCRA x in quarter k over the total number of intoxications of all investigated SCRAs in the same quarter; the number of serum/blood samples positive for SCRA x over the total number of serum/blood samples positive for all SCRAs plus the number of urine samples positive for SCRA x over the total number of urine samples positive for all SCRAs (this is divided by two to account for the two different sample types); and the number of quarters in which the SCRA x was prevalent. (2) G1x=∑k=1gak/bk/ck/dk+ek/fk/2/h+i
# Consequently, equation 2 was mathematically rearranged. To further simplify the equation and reduce the formula signs, in equation 3 the following simplifications were taken: a/b=ai , c/d=as and e/f=au .
# The sum of these quotients was divided by the number of all prevalent quarters (q p ). Prevalent quarters were defined as quarters in which on average the substance was detected in more than 5% of the positive serum and urine samples. If a poisoning occurred in a quarter in which the substance was not prevalent, the number of these quarters was added (q i ). This part of the score has similarities with an OR [42]. If the proportion of routine samples in a given quarter in which an intoxication with the respective substance occurred was zero (a s + a u = 0), a value of 0.01 was used for that quarter in the calculation of the quotient to avoid division by zero.
# For part G2, the severity of the intoxication caused by the respective SCRA x was assessed on the basis of reported symptoms and follow‐up information using the PSS [20]. The PSS classifies the intoxication severity into five levels: (0) no, (1) mild, (2) moderate, (3) severe, and (4) fatal intoxication. […] For this purpose, the mean value of the PSS of all intoxications with the respective SCRA x was calculated ( G2x) .
# For part G3, the involvement of the SCRA in the respective intoxications was assessed. This was evaluated on the basis of the TSS [21]. Elliott et al. developed the TSS to assess and classify the contribution of NPS in fatalities. In the present study, the TSS was determined to weigh the involvement of the investigated SCRA in the intoxication and the contribution of the SCRA to the observed symptoms. To determine the TSS value, factors such as the determined concentration of the SCRA, the presence of other recreational drugs or medicinal drugs, the general health of the patient and the consumption circumstances need to be considered. […] In cases with more than one drug detected, a TSS of 3 was only assigned where other compounds were present at concentrations below the range in which relevant effects are to be expected.
# For the risk score, the mean value of the TSS of all intoxications with substance x was calculated ( G3x) . Analogous to the value of G2x , the value of G3x can theoretically be between 1 and 3. With a value of ‘1’, substance x was not mainly responsible for the symptoms in all of the intoxications (low level of significance), and with a value of ‘3’, it was the main cause in every poisoning in which it was detected.
smiles,measurement,setting,value
CC(C)C(NC(=O)c1nn(CC2CCCCC2)c2ccccc12)C(N)=O (stereo not shown),G total (risk score),"G1+G2+G3, higher value = greater toxicological risk",7.2
same,G2,mean Poison Severity Score (PSS) of all intoxications with the SCRA,2.1
same,G3,mean Toxicological Significance Score (TSS) of all intoxications with the SCRA,2.3
same,G1,"proportion in intoxication cases relative to prevalence in routine serum/blood and urine samples per quarter, 2013–2021, >1 over‐represented in intoxications",2.8
